Experiment in all cases: DTP human tumour cell line panel, 48 h
The subject of test [1] is HOP-92 NSCLC.
For test [2], the system named is HCC-2998 colon.
The test system of test [3] is SNB-19 CNS.
For test [4], the system named is SN12C renal.
The subject of test [5] is CCRF-CEM leukemia.
Test [6] concerns UO-31 renal.
For test [7], the system named is HT29 colon.
For test [8], the system named is SK-MEL-28 melanoma.
Test [9] has as its system NCI-H23 lung.
Test [10] concerns NCI/ADR-RES ovarian.

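Growth conditions: 96-well plates. Treatment: test compound, 48 hours, 5 concentrations. Analysis: linear interpolation between bracketing concentrations; unreached endpoints set to highest concentration. TGI marks complete inhibition of growth.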

Consider `N#Cc1c(N2CCC(O)C2)c2ccccc2n2c1nc1ccccc12` (stereo not given), for which the TGI was 95.7 µM in test [1]; greater than 100 µM in test [2]; greater than 100 µM in test [3]; greater than 100 µM in test [4]; greater than 100 µM in test [5]; greater than 100 µM in test [6]. Besides, the TGI in test [7], in test [8], in test [9] and in test [10] was greater than 100 µM throughout.
Turning to `COC(=O)c1cc(C(=CCC[C@H]2CC[C@@]3(C)C(CCC4C3CC[C@@]3(C)C4CC[C@@H]3C(C)CCCC(C)C)C2)c2cc(Cl)c(O)c(C(=O)OC)c2)cc(Cl)c1O` (stereo not given in full), the TGI in test [1], in test [2], in [3], in test [4], in [5] and in test [6] was greater than 10 µM in each case. Besides, the TGI in test [7], in test [8], in test [9] and in test [10] was greater than 10 µM in each case.
On to `C=C(CCC/C(C)=C/C=C/[C@@H](C)CCCc1ccoc1)C[C@@H]1OC(=O)[C@H](C)[C@@H]1O`, for which the concentration for total growth inhibition (TGI) in test [1] is 19.6 µM; in test [2], 24.8 µM; in test [3], 17.8 µM; in test [4], 20.6 µM; in [5], 24.6 µM; in test [6], 15.9 µM. Also, the concentration for total growth inhibition (TGI) in [7] was greater than 50 µM; in test [8], 19.1 µM; in [9], 16.6 µM; in test [10], 19.9 µM.
In the case of `CC(C)=CC(Cc1ccccc1)S(=O)(=O)c1nc2ccccc2s1` (stereo not given), the TGI in [1] came to 41.7 µM; in test [2], 33.6 µM; in [3] it was 32 µM; in [4] it was 31.8 µM; in test [5], 7.49 µM; in test [6], 27.5 µM. Also, the TGI in test [7] worked out at 41.7 µM; in test [8], 32.3 µM; in test [9], 48.8 µM; in [10], 50 µM.
As for `CC1(C)Cc2nc3c(cc2C(=O)C1C=N/C(C#N)=C(\N)C#N)C(=O)C(C=N/C(C#N)=C(\N)C#N)C(C)(C)C3` (stereo not given), the TGI in test [1] is 3.33 µM; in test [2], 10.3 µM; in test [3] it was 21.5 µM; in test [4], 5.23 µM; in [5], greater than 100 µM; in [6] it was 3.51 µM. The TGI in test [7] is 10.9 µM; in test [8], 4.58 µM; in test [9], 7.36 µM; in [10], greater than 42 µM.
Turning to `COc1cc(NCCC2CCCCN2)c2ncccc2c1` (stereo not given), the TGI in [1] was greater than 100 µM; in test [2] it was 30.7 µM; in test [3], greater than 100 µM; in test [4] it was greater than 77.2 µM; in [5], greater than 66.3 µM; in test [6], greater than 100 µM. In addition, the total growth inhibition concentration (TGI) is greater than 100 µM in [7], greater than 59.8 µM in test [8], greater than 100 µM in test [9] and greater than 100 µM in [10].
Take `C/C=C(\C)C(O)C(C)C(O)C/C=C(C)/C=C(\C)C/C(C)=C/C/C=C(\C)C(O)C(C)c1ccc(CCC)c(=O)o1` (stereo not given): the total growth inhibition concentration (TGI) in test [1] was 44 µM; in test [2], 26.4 µM; in test [3], 42.3 µM; in test [4], 46.2 µM; in test [5], greater than 100 µM; in [6], 21 µM. Further, the TGI in test [7] was 3.32 µM; in test [8] it was 32.3 µM; in test [9] it was 26.1 µM; in test [10], 29.7 µM.
As to `COC1C(O)C(n2ncc3c(SC)nc(SC)nc32)OC1C(O)CO` (stereo not given), the TGI in test [1], in test [2], in test [3], in [4], in test [5] and in test [6] was greater than 100 µM in each case. The TGI in [7], in test [8], in test [9] and in test [10] was greater than 100 µM each time.
Regarding `O=c1ccn(COC(COCc2ccccc2)COCc2ccccc2)c(=O)[nH]1`, the total growth inhibition concentration (TGI) in test [1], in test [2], in test [3], in test [4], in test [5] and in test [6] was greater than 100 µM throughout. The TGI in [7], in test [8], in test [9] and in test [10] was greater than 100 µM throughout.
In the case of `CN(C)C(c1ccccc1)C1COC2Cc3ccccc3C1O2` (stereo not given), the total growth inhibition concentration (TGI) in [1], in test [2], in [3], in test [4], in test [5] and in test [6] was greater than 100 µM in each case. The concentration for total growth inhibition (TGI) in test [7], in [8], in test [9] and in test [10] was greater than 100 µM in each case.
Take `COC(=O)c1ccc(N=NN(C)COc2ccc(Br)cc2)cc1`: the TGI is greater than 100 µM in test [1]; 87.7 µM in test [2]; greater than 100 µM in [3]; greater than 100 µM in test [4]; greater than 100 µM in test [5]; greater than 100 µM in test [6]. In addition, the concentration for total growth inhibition (TGI) in test [7], in test [8], in [9] and in [10] was greater than 100 µM in each case.

Values taken from PubChem BioAssay (NCI).
